Paper PMC3225327 (Journal of Biomedical Science, 2011)

Key:
[1] = test system: ovalbumin-induced airway hyperresponsiveness; test: Airway hyperresponsiveness, barometric plethysmography (Penh) in OVA-sensitized and challenged mice; format: in vivo, BABL/c mice
Method: According to the schedule (Figure 1), ten female BABL/c mice in each group were sensitized by an intraperitoneal (i.p.) injection of 20 μg of OVA emulsified in 2.25 mg of an aluminum hydroxide gel, prepared from aluminum sulfate hexadecahydrate, in a total volume of 100 μl on days 0 and 14. On day 21, these mice were injected with (i.p.) 100 μl of a mixture of 1% OVA and Freund's complete adjuvant (1:1). Mice were challenged via the airway using 1% OVA in saline for 30 min on days 28, 29, and 30 by ultrasonic nebulization. After the last of OVA challenges, AHR was assessed on day 32 (48 h after 1% OVA provocation) in each group. […] For comparison, sham-treated mice were challenged with saline instead of 1% OVA (non-challenged). […] AHR was assessed using two methods: (1) in anesthetized ventilated mice, AHR was assessed as previously described by measuring changes in the airway resistance (RL, cmH2O/ml/sec) and lung dynamic compliance (Cdyn, ml/cmH2O) after challenge with aerosolized methacholine (MCh, 0.78~25 mg/ml) using the FlexiVent system (SCIREQ, Montreal, Quebec, Canada). Anesthetized (urethane 600 mg/kg and chloralose 120 mg/kg, i.p.), tracheostomized (stainless-steel cannula, 18 G) mice were mechanically ventilated (at 150 breaths/min, with a tidal volume of 10 ml/kg, positive end-expiratory pressure of 3 cmH2O). (2) in unrestrained animals by barometric plethysmography using a whole-body plethysmograph (WBP) and analyzed using software of Life Science Suite P3 Analysis Modules (Gould, LDS Test and Measurement LLC, Valley View, OH, USA). Mice were placed into the main chamber of the WBP, and the baseline enhanced pause (Penh) value was determined.

PDE3 = test: Inhibition of PDE3 activity, two-step procedure; format: biochemical; conditions: homogenate of guinea pig lungs or hearts
Method: Activities of PDE1~5 in the homogenate of guinea pig lungs or hearts were measured by a two-step procedure according to the previous method, using cAMP with [^3H]-cAMP or cGMP with [^3H]-cGMP as substrates. […] The reagents and homogenate were mixed on ice, and the reaction was initiated by transferring the mixture to a water bath at 37°C. Following a 30-min incubation, the reaction was stopped by transferring the reaction vessel to a bath of boiling water for 3 min. After cooling on ice, 20 μl of a 1 mg/ml solution of Crotalus atrox snake venom was added to the reaction mixture, and the mixture was incubated at 37°C for 10 min. Unreacted [^3H]-cAMP or [^3H]-cGMP was removed by the addition of 500 μl of a 1-in-1 Tris-HCl (40 mM) buffer suspension of Dowex resin (1 × 8-200) with incubation on ice for 30 min. Each tube was then centrifuged at 3700 g for 2 min, and 150 μl of the supernatant was removed for liquid scintillation counting. […] The total protein in each fraction used was assayed according to a previous method. PDE activities are reported as nmol/mg/min.

## COc1cc(O)c2c(c1)O[C@H](c1ccc(OC)c(OC)c1)CC2=O [HDME, hesperetin-7,3'-O-dimethylether]
[1]; 3 μmol/kg p.o.
  Penh value at the baseline: 2.45 ± 0.04
  Penh value with PBS nebulization: 2.43 ± 0.05
[1]; 10 μmol/kg p.o.
  Penh value at the baseline: 2.36 ± 0.05
  Penh value with PBS nebulization: 2.38 ± 0.06
[1]; 30 μmol/kg p.o.
  Penh value at the baseline: 2.43 ± 0.03
  Penh value with PBS nebulization: 2.44 ± 0.06
[1]; 3~30 μmol/kg p.o., 25 and 50 mg/ml MCh
  effect on enhancement of Penh values induced by MCh: dose-dependently and significantly attenuated
PDE3
  IC50: 24.6 ± 3.5 µM
